Data taken from PubChem BioAssay (NCI).
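Values below derive from 48-hour exposures of cells grown in 96-well plates, with endpoints linearly interpolated between the two concentrations bracketing the appropriate inhibition level. The concentration for full growth arrest is given as TGI.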

Tests used:
Test in all cases: growth of human tumour cells (NCI), 48 h
A498 renal = system: A498 renal
MOLT-4 leukemia = system: MOLT-4 leukemia
MDA-MB-231 breast = system: MDA-MB-231 breast
CCRF-CEM leukemia = system: CCRF-CEM leukemia
BT-549 breast = system: BT-549 breast
OVCAR-3 ovarian = system: OVCAR-3 ovarian
RPMI-8226 leukemia = system: RPMI-8226 leukemia
OVCAR-8 ovarian = system: OVCAR-8 ovarian
U251 CNS = system: U251 CNS
IGROV1 ovarian = system: IGROV1 ovarian
SK-OV-3 ovarian = system: SK-OV-3 ovarian
RXF 393 renal = system: RXF 393 renal
CAKI-1 renal = system: CAKI-1 renal
T-47D breast = system: T-47D breast
UO-31 renal = system: UO-31 renal
ACHN renal = system: ACHN renal
SF-295 CNS = system: SF-295 CNS
PC-3 prostate = system: PC-3 prostate
MCF7 breast = system: MCF7 breast
SNB-75 CNS = system: SNB-75 CNS
SNB-19 CNS = system: SNB-19 CNS
MDA-MB-435 = system: MDA-MB-435
A549 NSCLC = system: A549 NSCLC
KM12 colon = system: KM12 colon
MALME-3M melanoma = system: MALME-3M melanoma
HS 578T breast = system: HS 578T breast
HT29 colon = system: HT29 colon
NCI-H23 lung = system: NCI-H23 lung
COLO 205 colon = system: COLO 205 colon
UACC-257 melanoma = system: UACC-257 melanoma
NCI-H460 lung = system: NCI-H460 lung
NCI/ADR-RES ovarian = system: NCI/ADR-RES ovarian
HCT-116 colon = system: HCT-116 colon
TK-10 renal = system: TK-10 renal
MDA-N = system: MDA-N
M14 melanoma = system: M14 melanoma
NCI-H522 lung = system: NCI-H522 lung
HCT-15 colon = system: HCT-15 colon
K-562 leukemia = system: K-562 leukemia
HOP-62 NSCLC = system: HOP-62 NSCLC
EKVX NSCLC = system: EKVX NSCLC
UACC-62 melanoma = system: UACC-62 melanoma
SF-268 CNS = system: SF-268 CNS
HOP-92 NSCLC = system: HOP-92 NSCLC
786-0 renal = system: 786-0 renal
SR leukemia = system: SR leukemia
SK-MEL-5 melanoma = system: SK-MEL-5 melanoma
SW-620 colon = system: SW-620 colon
OVCAR-4 ovarian = system: OVCAR-4 ovarian
LOX IMVI melanoma = system: LOX IMVI melanoma
NCI-H226 lung = system: NCI-H226 lung
SK-MEL-2 melanoma = system: SK-MEL-2 melanoma
SF-539 CNS = system: SF-539 CNS
OVCAR-5 ovarian = system: OVCAR-5 ovarian
DU-145 prostate = system: DU-145 prostate
SN12C renal = system: SN12C renal
HCC-2998 colon = system: HCC-2998 colon
SK-MEL-28 melanoma = system: SK-MEL-28 melanoma
HL-60(TB) leukemia = system: HL-60(TB) leukemia

Compound: COc1ccc(C2C3COc4ccccc4C3=NN2c2ccccc2)cc1 (centres undefined)
- TGI (A498 renal): > 100 µM
- TGI (MOLT-4 leukemia): > 100 µM
- TGI (MDA-MB-231 breast): > 100 µM
- TGI (CCRF-CEM leukemia): > 100 µM
- TGI (BT-549 breast): > 100 µM
- TGI (OVCAR-3 ovarian): > 100 µM
- TGI (RPMI-8226 leukemia): > 100 µM
- TGI (OVCAR-8 ovarian): > 100 µM
- TGI (U251 CNS): > 100 µM
- TGI (IGROV1 ovarian): > 100 µM
- TGI (SK-OV-3 ovarian): > 100 µM
- TGI (RXF 393 renal): > 100 µM
- TGI (CAKI-1 renal): > 100 µM
- TGI (T-47D breast): > 100 µM
- TGI (UO-31 renal): > 100 µM
- TGI (ACHN renal): > 100 µM
- TGI (SF-295 CNS): > 100 µM
- TGI (PC-3 prostate): > 100 µM
- TGI (MCF7 breast): > 100 µM
- TGI (SNB-75 CNS): > 100 µM
- TGI (SNB-19 CNS): > 100 µM
- TGI (MDA-MB-435): > 100 µM
- TGI (A549 NSCLC): > 100 µM
- TGI (KM12 colon): > 100 µM
- TGI (MALME-3M melanoma): > 100 µM
- TGI (HS 578T breast): > 100 µM
- TGI (HT29 colon): > 100 µM
- TGI (NCI-H23 lung): > 100 µM
- TGI (COLO 205 colon): > 100 µM
- TGI (UACC-257 melanoma): > 100 µM
- TGI (NCI-H460 lung): > 100 µM
- TGI (NCI/ADR-RES ovarian): > 100 µM
- TGI (HCT-116 colon): > 100 µM
- TGI (TK-10 renal): > 100 µM
- TGI (MDA-N): > 100 µM
- TGI (M14 melanoma): > 100 µM
- TGI (NCI-H522 lung): > 100 µM
- TGI (HCT-15 colon): > 100 µM
- TGI (K-562 leukemia): > 100 µM
- TGI (HOP-62 NSCLC): > 100 µM
- TGI (EKVX NSCLC): > 100 µM
- TGI (UACC-62 melanoma): > 100 µM
- TGI (SF-268 CNS): > 100 µM
- TGI (HOP-92 NSCLC): > 100 µM
- TGI (786-0 renal): > 100 µM
- TGI (SR leukemia): > 100 µM
- TGI (SK-MEL-5 melanoma): > 100 µM
- TGI (SW-620 colon): > 100 µM
- TGI (OVCAR-4 ovarian): > 100 µM
- TGI (LOX IMVI melanoma): > 100 µM
- TGI (NCI-H226 lung): > 100 µM
- TGI (SK-MEL-2 melanoma): > 100 µM
- TGI (SF-539 CNS): > 100 µM
- TGI (OVCAR-5 ovarian): > 100 µM

Compound: SCCSCCCSCCS
- TGI (MOLT-4 leukemia): 31.2 µM
- TGI (MDA-MB-231 breast): > 100 µM
- TGI (DU-145 prostate): > 100 µM
- TGI (CCRF-CEM leukemia): 41.5 µM
- TGI (BT-549 breast): > 100 µM
- TGI (OVCAR-3 ovarian): > 100 µM
- TGI (OVCAR-8 ovarian): > 100 µM
- TGI (U251 CNS): > 100 µM
- TGI (IGROV1 ovarian): > 100 µM
- TGI (SK-OV-3 ovarian): > 100 µM
- TGI (T-47D breast): > 100 µM
- TGI (UO-31 renal): > 100 µM
- TGI (SF-295 CNS): > 100 µM
- TGI (PC-3 prostate): > 100 µM
- TGI (MCF7 breast): > 100 µM
- TGI (SNB-75 CNS): > 100 µM
- TGI (SNB-19 CNS): > 100 µM
- TGI (MDA-MB-435): > 100 µM
- TGI (SN12C renal): > 100 µM
- TGI (A549 NSCLC): > 100 µM
- TGI (KM12 colon): > 100 µM
- TGI (HCC-2998 colon): > 100 µM
- TGI (HT29 colon): > 100 µM
- TGI (NCI-H23 lung): > 100 µM
- TGI (COLO 205 colon): > 100 µM
- TGI (UACC-257 melanoma): > 100 µM
- TGI (NCI-H460 lung): > 100 µM
- TGI (NCI/ADR-RES ovarian): > 100 µM
- TGI (HCT-116 colon): > 100 µM
- TGI (MDA-N): > 100 µM
- TGI (SK-MEL-28 melanoma): > 100 µM
- TGI (M14 melanoma): > 100 µM
- TGI (NCI-H522 lung): > 100 µM
- TGI (HCT-15 colon): > 100 µM
- TGI (K-562 leukemia): > 100 µM
- TGI (HOP-62 NSCLC): > 100 µM
- TGI (EKVX NSCLC): > 100 µM
- TGI (UACC-62 melanoma): > 100 µM
- TGI (SF-268 CNS): > 100 µM
- TGI (786-0 renal): > 100 µM
- TGI (HL-60(TB) leukemia): 45.6 µM
- TGI (SR leukemia): 32.7 µM
- TGI (SK-MEL-5 melanoma): > 100 µM
- TGI (SW-620 colon): > 100 µM
- TGI (OVCAR-4 ovarian): 98.2 µM
- TGI (LOX IMVI melanoma): > 100 µM
- TGI (SF-539 CNS): > 100 µM
- TGI (OVCAR-5 ovarian): > 100 µM

Compound: CC(=O)N=C1N(/C=C2\C(=O)Oc3ccccc3C2=O)C(=O)/C(=C/c2ccc(NC(C)=O)cc2)N1C
- TGI (A498 renal): > 100 µM
- TGI (MOLT-4 leukemia): > 100 µM
- TGI (MDA-MB-231 breast): > 100 µM
- TGI (DU-145 prostate): > 100 µM
- TGI (CCRF-CEM leukemia): > 100 µM
- TGI (OVCAR-3 ovarian): > 100 µM
- TGI (RPMI-8226 leukemia): > 100 µM
- TGI (OVCAR-8 ovarian): > 100 µM
- TGI (U251 CNS): > 100 µM
- TGI (IGROV1 ovarian): > 100 µM
- TGI (SK-OV-3 ovarian): > 100 µM
- TGI (RXF 393 renal): > 100 µM
- TGI (CAKI-1 renal): > 100 µM
- TGI (T-47D breast): > 100 µM
- TGI (ACHN renal): > 100 µM
- TGI (SF-295 CNS): > 100 µM
- TGI (PC-3 prostate): > 100 µM
- TGI (MCF7 breast): > 100 µM
- TGI (SNB-75 CNS): > 100 µM
- TGI (MDA-MB-435): > 100 µM
- TGI (SN12C renal): > 100 µM
- TGI (A549 NSCLC): > 100 µM
- TGI (KM12 colon): > 100 µM
- TGI (MALME-3M melanoma): > 100 µM
- TGI (HS 578T breast): > 100 µM
- TGI (HCC-2998 colon): > 100 µM
- TGI (HT29 colon): > 100 µM
- TGI (NCI-H23 lung): > 100 µM
- TGI (COLO 205 colon): > 100 µM
- TGI (UACC-257 melanoma): > 100 µM
- TGI (NCI-H460 lung): > 100 µM
- TGI (NCI/ADR-RES ovarian): > 100 µM
- TGI (HCT-116 colon): > 100 µM
- TGI (MDA-N): > 100 µM
- TGI (SK-MEL-28 melanoma): > 100 µM
- TGI (M14 melanoma): > 100 µM
- TGI (NCI-H522 lung): > 100 µM
- TGI (HCT-15 colon): > 100 µM
- TGI (K-562 leukemia): > 100 µM
- TGI (HOP-62 NSCLC): > 100 µM
- TGI (EKVX NSCLC): > 100 µM
- TGI (UACC-62 melanoma): > 100 µM
- TGI (SF-268 CNS): > 100 µM
- TGI (786-0 renal): > 100 µM
- TGI (HL-60(TB) leukemia): > 100 µM
- TGI (SR leukemia): > 100 µM
- TGI (SK-MEL-5 melanoma): > 100 µM
- TGI (SW-620 colon): > 100 µM
- TGI (OVCAR-4 ovarian): > 100 µM
- TGI (LOX IMVI melanoma): > 100 µM
- TGI (NCI-H226 lung): > 100 µM
- TGI (SK-MEL-2 melanoma): > 100 µM
- TGI (SF-539 CNS): > 100 µM
- TGI (OVCAR-5 ovarian): > 100 µM

Compound: Nc1nc2c(c(=O)[nH]1)C(c1ccc(Cl)cc1)C=C(c1ccccc1)N2 (centres undefined)
- TGI (A498 renal): > 100 µM
- TGI (MDA-MB-231 breast): 43.6 µM
- TGI (DU-145 prostate): > 100 µM
- TGI (CCRF-CEM leukemia): 93.4 µM
- TGI (BT-549 breast): > 100 µM
- TGI (RPMI-8226 leukemia): 39.3 µM
- TGI (U251 CNS): 39.4 µM
- TGI (SK-OV-3 ovarian): 54.9 µM
- TGI (RXF 393 renal): > 100 µM
- TGI (CAKI-1 renal): > 100 µM
- TGI (T-47D breast): 72.7 µM
- TGI (UO-31 renal): > 100 µM
- TGI (ACHN renal): > 100 µM
- TGI (SF-295 CNS): > 100 µM
- TGI (SNB-19 CNS): > 100 µM
- TGI (MDA-MB-435): 41.8 µM
- TGI (SN12C renal): 46.6 µM
- TGI (A549 NSCLC): > 100 µM
- TGI (HCC-2998 colon): 34.2 µM
- TGI (NCI-H23 lung): 59.1 µM
- TGI (COLO 205 colon): 45.6 µM
- TGI (UACC-257 melanoma): > 100 µM
- TGI (NCI-H460 lung): 71.7 µM
- TGI (HCT-116 colon): 41.8 µM
- TGI (TK-10 renal): > 100 µM
- TGI (MDA-N): 47.7 µM
- TGI (SK-MEL-28 melanoma): 60.6 µM
- TGI (HCT-15 colon): > 100 µM
- TGI (K-562 leukemia): 60 µM
- TGI (UACC-62 melanoma): 78.3 µM
- TGI (HOP-92 NSCLC): 54.7 µM
- TGI (786-0 renal): 74.5 µM
- TGI (HL-60(TB) leukemia): > 100 µM
- TGI (SR leukemia): 51.8 µM
- TGI (SK-MEL-5 melanoma): 55.8 µM
- TGI (SW-620 colon): 61.9 µM
- TGI (OVCAR-4 ovarian): > 100 µM
- TGI (LOX IMVI melanoma): > 100 µM
